Laboratory results: patent US20080187556A1 (priority 2005, published 2008)
Values after ≈ are worked out from the molar mass of the structure shown. Ends that are not written are not given here.

Tests used:
S180 sarcoma = system: S180 sarcoma; set-up: species or system mice; details: mouse, in vivo
mononuclear phagocytes = system: mononuclear phagocytes; set-up: species or system mice; details: mouse, in vivo
H22 hepatic carcinoma = system: H22 hepatic carcinoma; set-up: species or system mice; details: mouse, in vivo
Tca83 = assay: cells; format: cell-based; details: Homo sapiens
A549 = assay: cells; format: cell-based; details: Homo sapiens
PC-3M = assay: cells; format: cell-based; details: Homo sapiens
EJ = assay: cells; format: cell-based; details: Homo sapiens
KB = assay: cells; format: cell-based; details: Homo sapiens
Ketr-3 = assay: cells; format: cell-based; details: Homo sapiens, KETR3
A431 = assay: cells; format: cell-based; details: Homo sapiens, A-431
BGC-823 = assay: cells; format: cell-based; details: Homo sapiens
HCT-8 = assay: cells; format: cell-based; details: Homo sapiens
CaEs-17 = assay: cells; format: cell-based; details: Homo sapiens, CaEs17
HeLa = assay: cells; format: cell-based; details: Homo sapiens
Hep-2 = assay: cells; format: cell-based; details: Homo sapiens
Bel7402 = assay: cells; format: cell-based; details: Homo sapiens, Bel-7402
HELF = assay: cells; format: cell-based; details: Homo sapiens
MCF-7 = assay: cells; format: cell-based; details: Homo sapiens, MCF7
[1] = set-up: species or system mice; details: mouse, in vivo

With O=P1(N(CCCl)CCCl)NCCCO1 (stereo not shown) [Cyclophosphamide] the “pathological picture of tumor tissue” value (S180 sarcoma) was “necrotic and degenerated tissue scattered”, the “Index of phagocytosis, K” value (mononuclear phagocytes) was 0.0744 ± 0.0081 and the “Phagocytosis activity, α” value (mononuclear phagocytes) was 4.4614 ± 0.2413. The “pathological picture of tumor tissue” value (H22 hepatic carcinoma) was “necrotic and degenerated tissue scattered”.

For O=c1[nH]cc(F)c(=O)[nH]1 [Fluorouracil], the IC50 (Tca83) was 0.924 ± 0.0435 µg/mL (≈ 7.1 µM), the IC50 (A549) was 0.425 ± 0.034 µg/mL (≈ 3.27 µM) and the IC50 (PC-3M) was 1.49 ± 1.07 µg/mL (≈ 11.4 µM). The IC50 (EJ) was 3.69 ± 0.909 µg/mL (≈ 28.4 µM), the IC50 (KB) was 0.66 ± 0.0085 µg/mL (≈ 5.07 µM) and the IC50 (Ketr-3) was 0.634 ± 0.0147 µg/mL (≈ 4.87 µM). It also gave an IC50 (A431) of 0.174 ± 0.0447 µg/mL (≈ 1.34 µM), an IC50 (BGC-823) of 0.632 ± 0.0572 µg/mL (≈ 4.86 µM) and an IC50 (HCT-8) of 0.605 ± 0.0278 µg/mL (≈ 4.65 µM). It also gave an IC50 (CaEs-17) of 0.757 ± 0.0254 µg/mL (≈ 5.82 µM), an IC50 (HeLa) of 0.613 ± 0.05 µg/mL (≈ 4.71 µM) and an IC50 (Hep-2) of 4.88 ± 2.22 µg/mL (≈ 37.5 µM). The IC50 (Bel7402) was 0.718 ± 0.0067 µg/mL (≈ 5.52 µM), the IC50 (HELF) was 0.087 ± 0.004 µg/mL (≈ 0.669 µM) and the IC50 (MCF-7) was 0.646 ± 0.0437 µg/mL (≈ 4.97 µM).

With RKDVY [thymopentin] the “pathological picture of tumor tissue” value (S180 sarcoma) was “a few tumor cells were necrotic and degenerative” and the “pathological picture of tumor tissue” value (H22 hepatic carcinoma) was “a little of tumor cell necrosis and degeneration”.

In the case of “Thymosin Alpha-1 (SDAAVDTSSEITTKDLKEKKEVVEEAEN; not fully specified (N-terminus); ends and bridges not checked; UniProt P06454 2-29, looked up) [biological drug, registration No. H20050339]”, the “Index of phagocytosis, K” value (mononuclear phagocytes) is reported as 0.3473 ± 0.0130, the “Phagocytosis activity, α” value (mononuclear phagocytes) is reported as 7.9583 ± 0.5069 and the Elongation index [1] is reported as 37.5%. The Swimming time [1] was 18.9 ± 2.98 min.
